Legend:
[1] = tested on: Staphylococcus aureus NCTC 6571; test: Lethal photosensitisation of S. aureus by gold nanoparticle-photosensitiser mixtures, white light, viable counting; assay type: cell-based
Protocol: Gold nanoparticles (2.0 nm diameter; British Biocell International) in water (15×10^13 particles per ml) were mixed with an equal volume of an aqueous solution of toluidine blue O (40 μM) and left at room temperature for 15 minutes. 100 μl of the gold-TB solution was added to 100 μl of a suspension of Staphylococcus aureus NCTC 6571 in phosphate buffered saline (PBS) and this was irradiated with white light from a fluorescent white lamp for 10 minutes. Controls consisted of:
(i) TB (final concentration=10 μM) and bacteria, irradiated for the same period of time,
(ii) nanogold (diluted 1:1 with water) and bacteria, irradiated for the same period of time,
(iii) bacteria without TB or nanogold, not irradiated (“control”).
After irradiation, the number of surviving bacteria was determined by viable counting. […] Note that the TB concentration and light energy dose used were designed to give sub-optimal kills so that differences in efficacy of the TB and the TB-nanogold could be discerned. Preliminary experiments using 30 minutes light exposure achieved total kills of the bacterial suspensions in both cases.
Gold nanoparticles of approximately 15 nm in diameter (batches NN1 and NN2 above) were mixed with an equal volume of aqueous toluidine blue O (TB) and left at room temperature for 15 minutes. TB was used at a final concentration of 1, 5, 10, 20 or 50 μM. 100 μl of the TB-gold mixture was added to 100 μl of a suspension of Staphylococcus aureus NCTC 6571 in phosphate buffered saline (PBS) (adjusted to an optical density of 0.05), and samples were irradiated with a fluorescent white light (28 W) for 10 minutes. S. aureus+TB only, and S. aureus+PBS, without photosensitiser or nanogold were used as controls. The final concentration of nanogold used was 1×10^15 particles/ml. After irradiation, the numbers of surviving bacteria were enumerated by viable counting.
The method of Example 2 was repeated using gold nanoparticles of 2 nm diameter (British Biocell International). The final concentration of nanogold used was 4×10^13 particles/ml. […]

[2] = tested on: Staphylococcus aureus NCTC 6571; test: Lethal photosensitisation of S. aureus by TBO-tiopronin-gold nanoparticle conjugate, white light (and dark controls), viable counting; assay type: cell-based

Cc1cc2nc3ccc(N(C)C)cc3[s+]c2cc1N.[Cl-] [TB only, toluidine blue O]
% Kill ([1]; 10 min 28 W fluorescent white lamp, 2.0 nm gold, TB final 10 μM): 93.7% | kill of the bacterial suspension ([1]; preliminary experiments, 30 minutes light exposure): total kills | S. aureus (cfu/ml) ([1]; surviving bacteria after 10 min 28 W fluorescent white lamp, 2.0 nm gold, TB final 10 μM): 8570000 cfu/ml | effect on S. aureus ([2]; irradiated with white light for any length of time (15, 30, 45 minutes)): no effect | concentration at which significant kills of the organism were exhibited (only at this concentration) ([2]; white light 30 mins): 2.0 μm
